Literature values as cited in patent publication US6297235A, “Triazolopyridazine derivatives for treating anxiety and enhancing cognition” (Merck Sharp & Dohme Ltd., priority 1997, dated 2001).

Columns and labels:
[1] = reported by McNamara and Skelton, Psychobiology, 21:101-108
[2] = in vivo

COC(=O)c1cc2c(cn1)[nH]c1ccccc12 [β-CCM]
spatial learning in the Morris watermaze [1]: enhanced spatial learning
proconvulsant or convulsant effect [2]: proconvulsant or convulsant
